Measurements reported in patent US20230321101A1, “METHODS AND USES OF HALOFUGINONE” (The Regents of the University of California, priority 2020, published 2023).
“Also recorded” adds a separate entry of the source. Like-named read-outs stand apart in the source and are kept apart here.

Legend:
[1] = system: cell surface heparan sulfate of Hep3B cells; experiment: Heparan sulfate presentation by anti-HS mAb 10E4 staining of Hep3B cells; format: cell-based, human
[2] = system: heparan sulfate of Hep3B cells; experiment: HS content and disaccharide analysis by LC-MS in Hep3B cells; format: cell-based, human
[3] = system: Hep3B cells transcriptome; experiment: RNA-Seq of Hep3B cells treated with halofuginone; format: cell-based, human
authentic SARS-CoV-2 [4] = format: cell-based
Huh 7.5 cells = experiment: Cell viability of Huh 7.5 cells, alamarBlue; format: cell-based, human; settings: Huh 7.5, 24 hr
Procedure: FIG. 28. Cell viability in Huh 7.5 cells after treatment for 24 hours with Halofuginone. Cell viability was measured using alamarBlue staining in HuH 7.5 cells at indicated concentrations of halofuginone after a 24 hr treatment (n=3 per dose). Data shown as mean±S.D. Statistics performed by 1-way ANOVA (ns: p>0.05, *:p≤0.01).
Cell Culture. Huh-7.5 cells^1 were generously provided by Charles M. Rice (Rockefeller University, New York, NY). Hep3B, BHK-15 and Calu-3 cells were from ATCC and were grown in DMEM medium containing 10% % fetal bovine serum, and 100 IU/ml of penicillin, 100 μg/ml of streptomycin sulfate and nonessential amino acids. BHK-15 were grown in Modified Eagle's supplemented with 10% fetal bovine serum and nonessential amino acids (Gibco, #11140-050). Hep3B, A375 and Vero E6 cells were from ATCC. The Hep3B cells carrying mutations in HS biosynthetic enzymes was derived from the parent ATCC Hep3B stock, and have been described previously^2. All cells were supplemented with 10% FBS, 100 IU/ml of penicillin and 100 μg/ml of streptomycin sulfate and grown under an atmosphere of 5% CO2 and 95% air. Cells were passaged before 80% confluence was reached and seeded as explained for the individual assays. Cell viability was measured using LDH leakage (Promega) or alamarBleu (Thermo Fisher).

authentic SARS-CoV-2 [5] = experiment: microbe, parasite or virus in culture; format: cell-based
HIV-1 = HIV-1 antiviral immunofluorescence assay in HeLa Tzmbl cells; format: cell-based; settings: Human immunodeficiency virus 1, read-out: EC50 HIV-1
Procedure: Experimental Procedure. The antiviral activity of 8 dilutions of each compound was explored by adding the drug to the assay cells 2 h after infection with the different viruses. Virus and compounds were left on the cells for the entire duration of the experiment (28 h for Zika virus and 24 h for all other viruses). The cytotoxicity of the same range of concentrations of compounds was determined by LDH release assay in the same cell lines.
Cell plating. Cells were detached and counted following SOP-RA 003 and SOP-RA 004. Count was recorded in the Cell Count Logbook, Volume 1. For each virus four plates were seeded, two for the antiviral assay and two for the cytotoxicity assay. Cells were seeded in 100 μl/well of complete media at the following densities: • Huh7: 8,000 cells/well (Dengue) • SH-SY5Y: 10,000 cells/wells (Zika) • HeLa Tzmbl: 8,000 cells/well (HIV)
Compounds dilutions. The 22.1 mM stocks were further diluted to 1 mM in DMSO by adding 211 μl of DMSO to 10 μl of compound. Three serial dilutions were prepared in different media for different viruses/cells. For each dilution, drugs were prepared at twice the final concentration in 50 μl volume, because they are diluted to the final concentration by an equal volume of virus or media.
Infection. Cells were infected in 50 μl of supplemented media/well at the following multiplicity of infection (MOI): • DENV-2, MOI 1 • ZIKV, MOI 5 • HIV, MOI 0.5
After removing culture media from cells, 50 μl of virus dilution were added to all wells except Column 11 (uninfected control), where the same volume of supplemented media was added. […]
Infectivity readout. […] The primary antibodies were detected with an Alexa-488 conjugate secondary antibody (Life Technologies, A11001), and nuclei were stained with Hoechst. Images were acquired on a CellInsight CX5 high content platform (Thermo Scientific) using a 4× objective, and percentage infection calculated using CellInsight CX5 software (infected cells/total cells×100).
Determination of % Inhibition—IF assay. Normalized percentages of inhibition were calculated using the following formula: […]

hepcidin expression [6] = experiment: Hepcidin expression in Hep3B human hepatocytes; format: cell-based
Procedure: FIG. 6. Hep3B—18 hr incubation.
FIG. 7. Hep3B—24 hr incubation.

hepcidin expression [7] = experiment: Hepcidin expression in the mouse liver upon iron loading; format: in vivo; settings: mice, 1 μg per mouse per day for 8 days, iron-rich diet (8.3 g/kg) for 7 days
Procedure: FIG. 10. […] Mice treated with Halofuginone for 8 days, 1 μg per mouse per day. Mice were either on normal iron-balanced chow (0.2 g/kg) or iron-rich diet (8.3 g/kg) for 7 days in conjunction with the treatment.

[8] = mice, cited from earlier work

O=C(CC1NCCCC1O)Cn1cnc2cc(Br)c(Cl)cc2c1=O (racemic) [halofuginone]
effect on heparan sulfate presentation (10E4 binding) ([1]; listed as Halofuginone): dose-dependently reduced 10E4 binding; also recorded: dose-dependently reduced the presence of cell surface heparan sulfate | effect on heparan sulfate presentation (10E4 binding) ([1]; listed as halofuginone (MAZ1392)): reduced heparan sulfate presentation | disaccharide composition of HS [2]: No difference was seen in the disaccharide composition | reduction of cell surface HS ([2]; 0.5 μM): ~4 fold | ATF4-mediated integrated stress response (ISR) ([3]; Hep3B RNA-Seq): induced a general ATF4-mediated ISR | expression of host factors exploited by SARS-CoV-2, TMPRSS2 and ACE2 ([3]; Hep3B RNA-Seq): No significant difference in expression | mRNA of HSPGs GPC2 (GPC1) and SDC1 with HS biosynthetic enzymes B3GAT3 and EXTL3 ([3]; Hep3B RNA-Seq): significantly downregulated | unfolded protein-induced ER stress response ([3]; Hep3B RNA-Seq): did not activate the unfolded protein-induced ER stress response | differentially expressed genes ([3]; Hep3B, 200 or 500 nM, 6 h and 18 h): ~2700 genes | number of SARS-CoV-2 infected cells (authentic SARS-CoV-2 [4]; at both 10 nM and 100 nM): significantly reduced the number of SARS-CoV-2 infected cells | inhibition of SARS-CoV-2 (authentic SARS-CoV-2 [4]; different halofuginone doses): complete inhibition of SARS-CoV-2 | cell viability (Huh 7.5 cells): without affecting cell viability | IC50 (authentic SARS-CoV-2 [5]; Severe acute respiratory syndrome coronavirus 2, Vero C1008, Vero E6, excess proline in the media (4 mM), read-out: IC50 of SARS-CoV-2 infection, proline rescue experiment): 210 nM | IC50 (authentic SARS-CoV-2 [5]; Severe acute respiratory syndrome coronavirus 2, Vero C1008, Vero E6, without excess proline, read-out: IC50 of SARS-CoV-2 infection, proline rescue experiment): 12.5 nM | IC50 (authentic SARS-CoV-2 [5]; Severe acute respiratory syndrome coronavirus 2, Vero C1008, Vero E6, read-out: IC50 of SARS-CoV-2 infectivity, enantiomer comparison): 28 nM | IC50 (authentic SARS-CoV-2 [5]; Severe acute respiratory syndrome coronavirus 2, Vero C1008, read-out: IC50 of SARS-CoV-2 infection): 13 nM | effect on authentic SARS-CoV-2 infection (authentic SARS-CoV-2 [5]; Vero E6): inhibit SARS-CoV-2 infection | potency compared to chloroquine (authentic SARS-CoV-2 [5]; Vero E6): 100 fold | inhibition of SARS-CoV-2 infectivity (authentic SARS-CoV-2 [5]; Vero E6, 50 nM): completely inhibited SARS-CoV-2 infectivity | inhibition of SARS-CoV-2 infectivity (authentic SARS-CoV-2 [5]; Vero E6, doses greater than 10 nM): complete inhibition of SARS-CoV-2 infectivity | EC50 (HIV-1): 23.6 nM | basal hepcidin expression (hepcidin expression [6]; 18 hr incubation): inhibits basal hepcidin expression | BMP6 induced expression of hepcidin (hepcidin expression [6]; 24 hr incubation): inhibits BMP6 induced expression of hepcidin | hepcidin expression in the liver (hepcidin expression [7]): reduces hepcidin expression in the mouse liver | exposure (area under the curve) in the lung compared to plasma ([8]; single intravenous injection): more than 87 fold | tissue distribution [8]: highest tissue concentrations in the lung and kidney
